This is an account of results in patent US4088772A, “Methanodibenzocycloheptapyrroles” (E. I. Du Pont de Nemours and Company, priority 1975, dated 1978).

Structures can show the parent of a compound that is named as a salt. Where two headings read alike, the source gives them in different places.

One series is described as follows: in vivo. To be noted: mouse, in vivo, po.
Another series deals with female white mice. Briefly: animal or person. To be noted: Mus musculus, po, oral, mice.
For series [1], the system named is phenylquinone-induced writhing. Briefly: Phenylquinone writhing test (analgesia). As to conditions: Table III, mice; for ED50: Mus musculus. It counts as in vivo, mouse (Carworth CF1 S female). From the text: This mouse test is predictive of analgesic response in humans. [E. Siegmund, R. Cadmus and G. Lee, Proc. Soc.
ED50 values were obtained graphically from the data.

Where [2] appears, read: read-out: Catatonia ED50, Table III.
The mark [3] stands for this setting: read-out: Exploratory Loss Visual ED50, Table III.
Where [4] appears, read: read-out: Muscle Tone ED50, Table III.
Where [5] appears, read: read-out: Ptosis ED50, Table III.
The mark [6] stands for this setting: read-out: Reflexes Grip ED50, Table III.
[7] abbreviates: read-out: Reflexes Lift ED50, Table III.
Where [8] appears, read: read-out: Reflexes Pinna ED50, Table III.

Usually LD50 stands for the dose expected to kill half of the subjects tested. In general, ED50 refers to the dose that gives a 50% effect, or the effect in half of the subjects. The compound `O=Cc1ccc2c(c1)[C@]13C[C@H]2c2ccccc2[C@H]1CN(CC1CCCC1)C3` (relative stereo) [Example 69, 5-Formyl-2-cyclopentylmethyl-2,3,8,12b-tetrahydro-1H-3a,8-methanodibenzo[3,4:6,7]cyclohepta[1,2-c]pyrrole Hydrochloride] yielded an LD50 at 24 h in the series “in vivo” of more than 324 mg/kg. The ED50 in the series with female white mice (setting [2]) was 60 mg/kg; in the series on female white mice (setting [3]) it was 60 mg/kg; with female white mice (setting [4]), 60 mg/kg; in the series on female white mice (setting [5]), 36 mg/kg; in the series with female white mice (setting [6]), more than 324 mg/kg; in the series on female white mice (setting [7]) it was 60 mg/kg. In addition, the ED50 was 20 mg/kg with female white mice (setting [8]) and less than 130 mg/kg in series [1] (po).

`Brc1ccc2c(c1)[C@]13C[C@H]2c2ccccc2[C@H]1CN(CC1CCCC1)C3` (relative stereo) [Example 70, 5-Bromo-2-cyclopentylmethyl-2,3,8,12b-tetrahydro-1H-3a,8-methanodibenzo[3,4:6,7]cyclohepta[1,2-c]pyrrole Hydrochloride] yielded an LD50 at 24 h in the series “in vivo” of more than 324 mg/kg. The ED50 was 12 mg/kg in the series with female white mice (setting [2]); 20 mg/kg in the series with female white mice (setting [3]); 12 mg/kg with female white mice (setting [4]); 7 mg/kg with female white mice (setting [5]); more than 324 mg/kg in the series on female white mice (setting [6]); 20 mg/kg with female white mice (setting [7]). Further, the ED50 was 7 mg/kg with female white mice (setting [8]) and less than 130 mg/kg in series [1] (po).

As to `CC(=NO)c1ccc2c(c1)[C@]13C[C@H]2c2ccccc2[C@H]1CN(CC1CCCC1)C3` (relative stereo) [Example 71, 5-Acetyl-2-cyclopentylmethyl-2,3,8,12b-tetrahydro-1H-3a,8-methanodibenzo[3,4:6,7]cyclohepta[1,2-c]pyrrole Oxime Hydrochloride], in the series “in vivo”, the LD50 at 24 h was more than 324 mg/kg. Besides, the ED50 with female white mice (setting [2]) is 100 mg/kg; with female white mice (setting [3]) it was 7 mg/kg; in the series on female white mice (setting [4]), 36 mg/kg; with female white mice (setting [5]), less than 4 mg/kg; in the series on female white mice (setting [6]), 300 mg/kg; with female white mice (setting [7]), 60 mg/kg. Besides, the ED50 with female white mice (setting [8]) amounted to 20 mg/kg; in series [1] (po) it was 21 mg/kg.

In the series “in vivo”, `Nc1ccc2c(c1)[C@H]1CN(CC3CCCC3)C[C@@]13C[C@@H]2c1ccc(N)cc13` (relative stereo) [Example 72, 5,11-Diamino-2-cyclopentylmethyl-2,3,8,12b-tetrahydro-1H-3a,8-methanodibenzo[3,4:6,7]cyclohepta[1,2-c]pyrrole] registered an LD50 at 24 h of more than 324 mg/kg. Also, the ED50 stood at 20 mg/kg in the series with female white mice (setting [2]); 60 mg/kg with female white mice (setting [3]); 36 mg/kg in the series with female white mice (setting [4]); 200 mg/kg with female white mice (setting [6]); 60 mg/kg in the series with female white mice (setting [7]); 20 mg/kg in the series on female white mice (setting [8]). Moreover, it took a dose of 7 mg/kg to reach the 50% effect level in series [1] (po) (ED50).

In turn, `O=C(O)c1ccc2c(c1)[C@]13C[C@H]2c2ccccc2[C@H]1CN(CC1CCCC1)C3` (relative stereo) [Example 73, 2-Cyclopentylmethyl-2,3,8,12b-tetrahydro-1H-3a,8-methanodibenzo[3,4:6,7]cyclohepta[1,2-c]pyrrole-5-carboxylic Acid Hydrochloride] returned an LD50 at 24 h in “in vivo” of more than 324 mg/kg. The ED50 is 60 mg/kg in the series with female white mice (setting [2]); 60 mg/kg with female white mice (setting [3]); 36 mg/kg in the series on female white mice (setting [4]); 36 mg/kg in the series with female white mice (setting [5]); more than 324 mg/kg in the series on female white mice (setting [6]); 100 mg/kg with female white mice (setting [7]). Moreover, the ED50 came to 36 mg/kg with female white mice (setting [8]) and 21 mg/kg in series [1] (po).

`COC(=O)c1ccc2c(c1)[C@]13C[C@H]2c2ccccc2[C@H]1CN(CC1CCCC1)C3` (relative stereo) [Example 74, 2-Cyclopentylmethyl-2,3,8,12b-tetrahydro-1H-3a,8-methanodibenzo[3,4:6,7]cyclohepta[1,2-c]pyrrole-5-carboxylic Acid Hydrochloride, Methyl Ester] came in with an LD50 at 24 h in “in vivo” of more than 324 mg/kg. Also, the ED50 was 36 mg/kg with female white mice (setting [2]); 36 mg/kg with female white mice (setting [3]); 36 mg/kg in the series on female white mice (setting [4]); less than 4 mg/kg with female white mice (setting [5]); more than 324 mg/kg in the series with female white mice (setting [6]); 36 mg/kg with female white mice (setting [7]). The ED50 was found to be 7 mg/kg with female white mice (setting [8]) and 11 mg/kg in series [1] (po).

The compound `Clc1ccc2c(c1)[C@]13C[C@H]2c2ccccc2[C@H]1CN(CC1CCCC1)C3` (relative stereo) [Example 76, 5-Chloro-2-cyclopentylmethyl-2,3,8,12b-tetrahydro-1H-3a,8-methanodibezno[3,4:6,7]cyclohepta[1,2-c]pyrrole Hydrochloride] displayed an LD50 at 24 h in “in vivo” of 300 mg/kg. Further, the ED50 with female white mice (setting [2]) was 12 mg/kg; with female white mice (setting [3]), 7 mg/kg; with female white mice (setting [4]), 12 mg/kg; in the series on female white mice (setting [5]) it was 7 mg/kg; in the series with female white mice (setting [6]), more than 324 mg/kg; in the series with female white mice (setting [7]) it was 20 mg/kg. Besides, the ED50 in the series with female white mice (setting [8]) is 20 mg/kg; in series [1] (po), less than 130 mg/kg.

`Fc1ccc2c(c1)[C@]13C[C@H]2c2ccccc2[C@H]1CN(CC1CCCC1)C3` (relative stereo) [Example 77, 5-Fluoro-2-cyclopentylmethyl-2,3,8,12b-tetrahydro-1H-3a,8-methanodibenzo[3,4:6,7]cyclohepta[1,2-c]pyrrole Hydrochloride]: the LD50 at 24 h in the series “in vivo” is more than 324 mg/kg. For the same compound, the ED50 was 20 mg/kg in the series with female white mice (setting [2]); 7 mg/kg in the series with female white mice (setting [3]); 20 mg/kg in the series on female white mice (setting [4]); 7 mg/kg in the series with female white mice (setting [5]); more than 324 mg/kg with female white mice (setting [6]); 20 mg/kg with female white mice (setting [7]). Also, the values for the ED50 (with female white mice (setting [8]); in series [1] (po)) were 36 mg/kg and less than 130 mg/kg, respectively.

On to `FC(F)c1ccc2c(c1)[C@]13C[C@H]2c2ccccc2[C@H]1CN(CC1CCCC1)C3` (relative stereo) [Example 78, 5-Difluoromethyl-2-cyclopentylmethyl-2,3,8,12b-tetrahydro-1H-3a,8-methanodibenzo[3,4:6,7]cyclohepta[1,2c]pyrrole Hydrochloride], for which the LD50 at 24 h in “in vivo” is more than 324 mg/kg. Further, the ED50 is 20 mg/kg in the series with female white mice (setting [2]); 7 mg/kg in the series on female white mice (setting [3]); 7 mg/kg with female white mice (setting [4]); less than 4 mg/kg in the series with female white mice (setting [5]); more than 324 mg/kg in the series on female white mice (setting [6]); 20 mg/kg in the series with female white mice (setting [7]). The median effective dose (ED50) in the series on female white mice (setting [8]) is 7 mg/kg; in series [1] (po), less than 130 mg/kg.

`Clc1ccc2c(c1)[C@H]1CN(CC3CCCC3)C[C@@]13C[C@@H]2c1ccc(Cl)cc13` (relative stereo) [Example 79, 5,11-Dichloro-2-cyclopentylmethyl-2,3,8,12b-tetrahydro1H-3a,8-methanodibenzo[3,4:6,7]cyclohepta[1,2-c]pyrrole Hydrochloride] came in with an LD50 at 24 h in the series “in vivo” of more than 324 mg/kg. Also, the ED50 is 20 mg/kg in the series with female white mice (setting [2]); 7 mg/kg in the series on female white mice (setting [3]); 36 mg/kg with female white mice (setting [4]); 7 mg/kg in the series with female white mice (setting [5]); more than 324 mg/kg in the series with female white mice (setting [6]); 36 mg/kg with female white mice (setting [7]). In addition, in the series with female white mice (setting [8]), the ED50 was 7 mg/kg. Further, the “Phenylquinone Analgesia ED50” value in series [1] (oral) is “active”.

`[N-]=[N+]=Nc1ccc2c(c1)[C@]13C[C@H]2c2ccccc2[C@H]1CN(CC1CCCC1)C3` (relative stereo) [Example 82, 5-Azido-2-cyclopentylmethyl-2,3,8,12b-tetrahydro-1H-3a,8-methanodibenzo[3,4:6,7]cyclohepta[1,2-c]-pyrrole] returned an LD50 at 24 h in “in vivo” of more than 324 mg/kg. Also, the ED50 with female white mice (setting [2]) was 60 mg/kg; in the series on female white mice (setting [3]), 7 mg/kg; in the series on female white mice (setting [4]) it was 20 mg/kg; in the series on female white mice (setting [5]), 7 mg/kg; in the series on female white mice (setting [6]), more than 324 mg/kg; in the series with female white mice (setting [7]), 60 mg/kg. Moreover, the 50% effective dose (ED50) is 36 mg/kg in the series on female white mice (setting [8]) and less than 130 mg/kg in series [1] (po).

Compound `ON=Cc1ccc2c(c1)[C@]13C[C@H]2c2ccccc2[C@H]1CN(CC1CCCC1)C3` (relative stereo) [Example 83, 5-Formyl-2-cyclopentylmethyl-2,3,8,12b-tetrahydro-1H-3a,8-methanodibenzo[3,4:6,7]cyclohepta[1,2-c]pyrrole Oxime Hydrochloride] had an LD50 at 24 h in “in vivo” of more than 324 mg/kg. The ED50 in the series with female white mice (setting [2]) was 36 mg/kg; in the series on female white mice (setting [3]), 20 mg/kg; in the series with female white mice (setting [4]) it was 36 mg/kg; in the series on female white mice (setting [5]), 36 mg/kg; with female white mice (setting [6]), more than 324 mg/kg; with female white mice (setting [7]), 60 mg/kg. Also, the figures for the ED50 (in the series on female white mice (setting [8]); in series [1] (po)) were 20 mg/kg and 2.7 mg/kg, respectively.

Regarding `CNC(=O)ON=Cc1ccc2c(c1)[C@]13C[C@H]2c2ccccc2[C@H]1CN(CC1CCCC1)C3` (relative stereo) [Example 84, 5-Formyl-2-cyclopentylmethyl-2,3,8,12b-tetrahydro-1H-3a,8-methanodibenzo[3,4:6,7]cyclohepta[1,2-c]pyrrole Oxime-O-(N-methylcarbamate) Hydrochloride], in the series “in vivo”, the LD50 at 24 h is more than 324 mg/kg. In addition, the ED50 is 100 mg/kg in the series with female white mice (setting [2]); 60 mg/kg in the series with female white mice (setting [3]); 100 mg/kg with female white mice (setting [4]); 36 mg/kg with female white mice (setting [5]); more than 324 mg/kg in the series with female white mice (setting [6]); 200 mg/kg in the series on female white mice (setting [7]). In addition, the ED50 was 100 mg/kg with female white mice (setting [8]) and less than 130 mg/kg in series [1] (oral).

In the case of `N#Cc1ccc2c(c1)[C@]13C[C@H]2c2ccccc2[C@H]1CN(CC1CCCC1)C3` (relative stereo) [Example 85, 5-Cyano-2-cyclopentylmethyl-2,3,8,12b-tetrahydro-1H-3a,8-methanodibenzo[3,4:6,7]cyclohepta[1,2-c]-pyrrole Hydrochloride], in “in vivo”, the LD50 at 24 h was found to be 300 mg/kg. Further, the ED50 was 15 mg/kg in the series with female white mice (setting [2]); 4.4 mg/kg with female white mice (setting [3]); 15 mg/kg in the series on female white mice (setting [4]); 4.4 mg/kg in the series with female white mice (setting [5]); more than 324 mg/kg with female white mice (setting [6]); 17 mg/kg with female white mice (setting [7]). The 50% effective dose (ED50) in the series with female white mice (setting [8]) amounted to 9.7 mg/kg; in series [1] (po), 1.7 mg/kg.
